Usually chromatographic logP stands for lipophilicity estimated from chromatographic retention.

Series [1] deals with Botrytis cinerea. Kind of series: Botrytis cinerea in vitro cell test. Format: cell-based. The following applies: 144 h, liquid culture, 6 days incubation, read-out: efficacy (inhibition of fungal growth); for inhibition at 20 ppm: 20 ppm of active ingredient; for inhibition at 50 µM: 50 μMol/l of active ingredient. The protocol:
B-9. Botrytis cinerea In Vitro Cell Test • Solvent: DMSO • Culture medium: 1 g KH2PO4 (VWR), 1 g K2HPO4 (VWR), 0.5 g Urea (VWR), 3 g KNO3 (Prolabo), 10 g saccharose (VWR), 0.5 g MgSO4, 7H2O (Sigma), 0.07 g CaCl2, 2H2O (Prolabo), 0.2 mg MnSO4, H2O (Sigma), 0.6 mg CuSO4, 5H2O (Sigma), 7.9 mg ZnSO4, 7H2O (Sigma), 0.1 mg H3BO3 (Merck), 0.14 mg NaMoO4, 2H2O (Sigma), 2 mg thiamine (Sigma), 0.1 mg biotine (VWR), 4 mg FeSO4, 7H2O (Sigma), QSP 1 liter • Inoculum: spore suspension Fungicides were solubilized in DMSO and the solution used to prepare the required range of concentrations. […] A spore suspension of B. cinerea was prepared and diluted to the desired spore density. Fungicides were evaluated for their ability to inhibit spore germination and mycelium growth in liquid culture assay. The compounds were added in the desired concentration to the culture medium with spores. After 6 days incubation, fungi-toxicity of compounds was determined by spectrometric measurement of mycelium growth. Inhibition of fungal growth was determined by comparing the absorbance values in wells containing the fungicides with the absorbance in control wells without fungicides.

Series [2] relates to Colletotrichum lindemuthianum. Kind of series: Colletotrichum lindemuthianum in vitro cell test. Format: cell-based. The note with it: 144 h, liquid culture, 6 days incubation, read-out: efficacy (inhibition of fungal growth); for inhibition at 20 ppm: 20 ppm of active ingredient; for inhibition at 50 µM: 50 μMol/l of active ingredient. The protocol: (§1) B-7. Colletotrichum lindemuthianum In Vitro Cell Test • Solvent: DMSO • Culture medium: 14.6 g anhydrous D-glucose (VWR), 7.1 g Mycological Peptone (Oxoid), 1.4 g granulated Yeast Extract (Merck), QSP 1 liter • Inoculum: spores suspension Fungicides were solubilized in DMSO and the solution used to prepare the required range of concentrations. […] A spore suspension of C. lindemuthianum was prepared and diluted to the desired spore density. Fungicides were evaluated for their ability to inhibit spores germination and mycelium growth in liquid culture assay. The compounds were added in the desired concentration to the culture medium with spores. After 6 days incubation, fungi-toxicity of compounds was determined by spectrometric measurement of mycelium growth. Inhibition of fungal growth was determined by comparing the absorbance values in wells containing the fungicides with the absorbance in control wells without fungicides.

The next series has as its system Alternaria brassicae. Kind of series: In vivo preventive test on Alternaria brassicae (leaf spot on radish or cabbage). The note with it: 500 ppm of active ingredient, sprayed on young radish or cabbage plants 24 h before inoculation, evaluated 3 to 4 days after inoculation, read-out: efficacy. The procedure: B-1. […] The active ingredients were made soluble and homogenized in a mixture of Dimethyl sulfoxide/Acetone//Tween® 80 and then diluted in water to the desired concentration. The young plants of radish or cabbage were treated by spraying the active ingredient prepared as described above. Control plants were treated only with an aqueous solution of Acetone/Dimethyl sulfoxide/Tween® 80. After 24 hours, the plants were contaminated by spraying the leaves with an aqueous suspension of Alternaria brassicae spores.

Series [3] has as its system Botrytis cinerea. Kind of series: In vivo preventive test on Botrytis cinerea (grey mould). The following applies: 500 ppm of active ingredient, sprayed on young gherkin or cabbage plants 24 h before inoculation, evaluated 4 to 5 days after inoculation, read-out: efficacy. The protocol:
The active ingredients were made soluble and homogenized in a mixture of Dimethyl sulfoxide/Acetone//Tween® 80 and then diluted in water to the desired concentration. The young plants of gherkin or cabbage were treated by spraying the active ingredient prepared as described above. Control plants were treated only with an aqueous solution of Acetone/Dimethyl sulfoxide/Tween® 80. After 24 hours, the plants were contaminated by spraying the leaves with an aqueous suspension of Botrytis cinerea spores.

A short description of series [4]: Measurement of Log P values by HPLC on reversed phase columns (EEC directive 79/831 Annex V.A8). Format: physicochemical. The note with it: Table 1, compounds of formula (I); method [a]: LC-UV, acidic range, 0.1% formic acid in water and acetonitrile.
Another series has as its system Alternaria alternata. Kind of series: Alternaria alternata in vitro cell test. The class given is cell-based. The note with it: 120 h, liquid culture, 5 days incubation, read-out: efficacy (inhibition of fungal growth). The procedure:
as §1, with “B-5. Alternaria alternata In” for “B-7. Colletotrichum lindemuthianum In”, “of A. alternata” for “of C. lindemuthianum”, “inhibit spore” for “inhibit spores”, “After 5” for “After 6”

Another series has as its system Pyrenophora teres. Kind of series: Pyrenophora teres in vitro cell test. Format: cell-based. The note with it: 144 h, liquid culture, 6 days incubation, read-out: efficacy (inhibition of fungal growth); for inhibition at 50 µM: 50 μMol/l of active ingredient. The protocol:
as §1, with “B-8. Pyrenophora teres In” for “B-7. Colletotrichum lindemuthianum In”, “Inoculum: spore” for “Inoculum: spores”, “of P. teres” for “of C. lindemuthianum”, “inhibit spore” for “inhibit spores”

The test system of the next series is Pyricularia oryzae. Kind of series: microbe, parasite or virus in culture. The note with it: 120 h; for inhibition at 50 µM: read-out: efficacy (inhibition of fungal growth), 50 μMol/l of active ingredient, liquid culture, 5 days incubation. The class given is cell-based.
The subject of another series is Fusarium culmorum. Kind of series: Fusarium culmorum in vitro cell test. The note with it: 120 h, 50 μMol/l of active ingredient, liquid culture, 5 days incubation, read-out: efficacy (inhibition of fungal growth). Format: cell-based. The procedure: B-10. Fusarium culmorum In Vitro Cell Test • Solvent: DMSO • Culture medium: 1 g KH2PO4 (VWR), 1 g K2HPO4 (VWR), 0.5 g Urea (VWR), 3 g KNO3 (Prolabo), 10 g saccharose (VWR), 0.5 g MgSO4, 7H2O (Sigma), 0.07 g CaCl2, 2H2O (Prolabo), 0.2 mg MnSO4, H2O (Sigma), 0.6 mg CuSO4, 5H2O (Sigma), 7.9 mg ZnSO4, 7H2O (Sigma), 0.1 mg H3BO3 (Merck), 0.14 mg NaMoO4, 2H2O (Sigma), 2 mg thiamine (Sigma), 0.1 mg biotine (VWR), 4 mg FeSO4, 7H2O (Sigma), QSP 1 liter • Inoculum: spores suspension
Fungicides were solubilized in DMSO and the solution used to prepare the required range of concentrations. The final concentration of DMSO used in the assay was ≤1%.
A spore suspension of F. culmorum was prepared and diluted to the desired spore density.
Fungicides were evaluated for their ability to inhibit spore germination and mycelium growth in liquid culture assay. The compounds were added in the desired concentration to the culture medium with spores. After 5 days incubation, fungi-toxicity of compounds was determined by spectrometric measurement of mycelium growth. Inhibition of fungal growth was determined by comparing the absorbance values in wells containing the fungicides with the absorbance in control wells without fungicides.

Take `COc1cccc(Sc2nnc3ccccc3c2C2=NOC[C@@H](Cc3ccc(C)cc3C)N2)c1` (racemic) [Compound I-006]: the inhibition at 20 ppm (with Botrytis cinerea [1]; in series [2]) was 90 to 100% each time. Also, the pest or weed control at 500 ppm in the series on Alternaria brassicae and in the series on Botrytis cinerea [3] was 90 to 100% each time. In series [4], this compound had a chromatographic logP of 3.84.
In the case of `Cc1cccc(Sc2nnc(Cl)cc2C2=NOC[C@@H](Cc3ccc(Cl)cc3Cl)N2)c1` (racemic) [Compound I-014], the inhibition at 20 ppm fell in the range of 90 to 100% with Botrytis cinerea [1] and 70 to 79% with Alternaria alternata (20 ppm of active ingredient). Moreover, the chromatographic logP in series [4] worked out at 4.59.
As to `Clc1cccc(Sc2nnc(Cl)cc2C2=NOC[C@@H](Cc3ccc(Cl)cc3Cl)N2)c1` (racemic) [Compound I-015], the inhibition at 20 ppm in the series with Botrytis cinerea [1] is 90 to 100%; in series [2], 90 to 100%; with Pyrenophora teres (20 ppm of active ingredient), 90 to 100%; in the series on Pyricularia oryzae (read-out: efficacy (inhibition of fungal growth), 20 ppm of active ingredient, liquid culture, 5 days incubation), 90 to 100%. Also, the pest or weed control at 500 ppm with Alternaria brassicae was 80 to 89%; in the series with Botrytis cinerea [3], 90 to 100%. In addition, the chromatographic logP in series [4] turned out to be 4.73.
On to `Cc1cc([C@H]2CON=C(c3c(Sc4ccccn4)nnc(C)c3C)N2)c(C)s1` (racemic) [Compound I-036], for which the inhibition at 50 µM is 90 to 100% in the series on Fusarium culmorum, 90 to 100% in series [2] and 70 to 79% in the series on Pyrenophora teres. Moreover, in series [4], the chromatographic logP was found to be 2.32.
For `COc1ccc(Sc2nnc(C)c(C)c2C2=NOC[C@@H](c3cc(C)sc3C)N2)cc1` (racemic) [Compound I-049], the inhibition at 50 µM with Pyrenophora teres and in the series with Alternaria alternata (50 μMol/l of active ingredient) was 70 to 79% throughout. The compound also registered a chromatographic logP in series [4] of 3.11.
On to `Cc1ccc([C@H]2CON=C(c3c(Sc4ccc(F)cc4)nnc4ccccc34)N2)s1` (racemic) [Compound I-060], for which the inhibition at 50 µM in the series on Botrytis cinerea [1] was 90 to 100%; with Fusarium culmorum, 70 to 79%; in the series on Pyrenophora teres, 70 to 79%. The pest or weed control at 500 ppm with Alternaria brassicae lay within 70 to 79%; in the series on Botrytis cinerea [3] it was 90 to 100%. In addition, the chromatographic logP in series [4] is 3.29.
For `Cc1ccc([C@H]2CON=C(c3c(Sc4ccc(F)c(Cl)c4)nnc4ccccc34)N2)s1` (racemic) [Compound I-068], the inhibition at 50 µM in the series on Botrytis cinerea [1] fell in the range of 90 to 100%; in series [2], 90 to 100%; in the series with Pyrenophora teres it was 70 to 79%. The figures for the pest or weed control at 500 ppm with Alternaria brassicae and in the series on Botrytis cinerea [3] were 80 to 89% and 90 to 100%, respectively. The same compound came in with a chromatographic logP in series [4] of 3.74.
`Cc1ccc([C@H]2CON=C(c3c(Sc4ccc(C)c(C)c4)nnc4ccccc34)N2)s1` (racemic) [Compound I-080]: the inhibition at 50 µM with Botrytis cinerea [1] was in the range of 90 to 100%; with Fusarium culmorum it was 90 to 100%; in the series on Pyricularia oryzae it was 80 to 89%. In addition, in the series on Botrytis cinerea [3], the pest or weed control at 500 ppm was in the range of 90 to 100%. The compound further had a chromatographic logP in [4] of 3.76.
Take `Cc1cc([C@H]2CON=C(c3c(Sc4ccc(F)c(Cl)c4)nnc(C)c3C)N2)c(C)s1` (racemic) [Compound I-088]: the inhibition at 50 µM (with Botrytis cinerea [1]; in [2]) was 90 to 100% each time. Moreover, the pest or weed control at 500 ppm in the series on Alternaria brassicae is 70 to 79%; in the series with Botrytis cinerea [3] it was 90 to 100%. The compound further displayed a chromatographic logP in series [4] of 3.62.
Consider `Cc1cccc(Sc2nnc(C)c(C)c2C2=NOC[C@H](c3cc(C)sc3C)N2)n1` (racemic) [Compound I-089], for which the inhibition at 50 µM in the series on Botrytis cinerea [1] was in the range of 70 to 79%. The pest or weed control at 500 ppm in the series on Alternaria brassicae is 70 to 79%; with Botrytis cinerea [3] it was 80 to 89%. This compound showed a chromatographic logP in series [4] of 2.56.
Consider `Cc1ccc([C@H]2CON=C(c3c(Sc4ccccc4)nnc(C)c3C)N2)s1` (racemic) [Compound I-117], for which the figures for the inhibition at 50 µM with Botrytis cinerea [1] and in the series with Fusarium culmorum were 90 to 100% and 80 to 89%, respectively. The pest or weed control at 500 ppm with Botrytis cinerea [3] lay within 90 to 100%. In [4], this compound displayed a chromatographic logP of 2.69.
Take `Cc1cc([C@@H]2CON=C(c3c(Sc4ccccc4C)nnc(C)c3C)N2)c(C)s1` (racemic) [Compound I-121]: the inhibition at 50 µM with Botrytis cinerea [1] lay in the range of 90 to 100%. Also, the pest or weed control at 500 ppm in the series on Alternaria brassicae was 80 to 89%; in the series with Botrytis cinerea [3] it was 90 to 100%. In [4], this compound registered a chromatographic logP of 3.29.
Turning to `Cc1ccc([C@H]2CON=C(c3c(Sc4ccc(F)c(F)c4)nnc4ccccc34)N2)s1` (racemic) [Compound I-124], the inhibition at 50 µM lay within 90 to 100% in the series on Botrytis cinerea [1], 80 to 89% in the series with Fusarium culmorum, 70 to 79% in series [2] and 70 to 79% in the series on Pyricularia oryzae. Also, the results for the pest or weed control at 500 ppm in the series on Alternaria brassicae and in the series with Botrytis cinerea [3] were 80 to 89% and 90 to 100%, respectively. The compound further showed a chromatographic logP in [4] of 3.44.
In the case of `Cc1ccc([C@H]2CON=C(c3c(Sc4cccc(OC(F)(F)F)c4)nnc4ccccc34)N2)s1` (racemic) [Compound I-133], the inhibition at 50 µM with Botrytis cinerea [1] was in the range of 90 to 100%; in the series with Fusarium culmorum, 70 to 79%; in series [2], 90 to 100%; in the series on Pyricularia oryzae, 70 to 79%. Moreover, the pest or weed control at 500 ppm with Botrytis cinerea [3] lay in the range of 90 to 100%. The same compound showed a chromatographic logP in series [4] of 3.92.

The values above are taken from patent US20250042886A1, “BIS(HETERO)ARYL THIOETHER OXADIAZINES AS FUNGICIDAL COMPOUNDS” (Bayer Aktiengesellschaft, priority 2021, published 2025).
